According to patent publication US20260042755A1, “GPR6 INVERSE AGONISTS” (MapLight Therapeutics, Inc., priority 2022, published 2026):

Key:
GPR6 = target: T1, GPR6 (Homo sapiens, UniProt P46095); experiment: GPR6 antagonist functional cAMP assay (LANCE Ultra cAMP TR-FRET, CHO cells stably expressing GPR6); type: cell-based
T1 construct: expressed in transfected cells; host or cells: CHO cells
Summary of the method: (§1)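 10,000 cells/well; KRB buffer + 0.1% BSA + 150 μM Ro 20-1724; cpd 45 min, 37 °C, 0.1% DMSO; TR-FRET cAMP, 665 nm; 4-PL fit, normalized to DMSO (0.1%) and reference (100%) → IC50.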

GPR3 = target: T2, GPR3 (Homo sapiens, UniProt P46089); experiment: GPR3 antagonist functional cAMP assay (LANCE Ultra cAMP TR-FRET, CHO cells stably expressing GPR3); type: cell-based
T2 construct: expressed in transfected cells; host or cells: CHO cells
Summary of the method: as §1

[1] = CHO cells stably expressing GPR6, cAMP assay (Example 24)
[2] = CHO cells stably expressing GPR3, cAMP assay (Example 24)
[3] = CHO cells stably expressing GPR6, cAMP assay
[4] = CHO cells stably expressing GPR3, cAMP assay
[5] = procedure as described in Example 24

T2 sequence (P46089 whole entry, species assumed): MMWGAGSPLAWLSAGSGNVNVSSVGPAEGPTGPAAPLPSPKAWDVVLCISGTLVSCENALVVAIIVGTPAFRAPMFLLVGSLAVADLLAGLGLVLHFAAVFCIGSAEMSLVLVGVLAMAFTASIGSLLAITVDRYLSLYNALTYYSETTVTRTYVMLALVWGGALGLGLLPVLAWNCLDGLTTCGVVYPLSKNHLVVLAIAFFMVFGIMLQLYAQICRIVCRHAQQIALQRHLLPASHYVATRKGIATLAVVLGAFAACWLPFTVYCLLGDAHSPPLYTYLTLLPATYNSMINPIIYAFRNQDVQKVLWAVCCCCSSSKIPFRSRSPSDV
T1 sequence (P46095 whole entry): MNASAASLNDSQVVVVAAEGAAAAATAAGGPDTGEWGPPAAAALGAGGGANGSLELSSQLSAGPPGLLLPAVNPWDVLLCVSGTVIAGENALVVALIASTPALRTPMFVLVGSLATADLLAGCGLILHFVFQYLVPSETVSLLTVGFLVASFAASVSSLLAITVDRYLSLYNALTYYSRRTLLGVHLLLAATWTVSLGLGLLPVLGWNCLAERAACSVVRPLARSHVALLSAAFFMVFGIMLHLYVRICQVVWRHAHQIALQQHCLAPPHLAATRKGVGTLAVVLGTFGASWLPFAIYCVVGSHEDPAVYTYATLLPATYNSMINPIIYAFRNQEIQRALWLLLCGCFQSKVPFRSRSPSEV

| Structure (SMILES) | IC50 (GPR6; [1]) | IC50 (GPR3; [2]) | IC50 (GPR6; procedure of Example 24) | IC50 (GPR3; procedure of Example 24) | other results |
| --- | --- | --- | --- | --- | --- |
| CN1CC(c2cc3nc(N4CCC(Oc5ccc(F)cc5F)CC4)c(-c4cnn(C)c4)nc3cn2)OC1=O (stereo not drawn) [Compound 482, 5-(2-(4-(2,4-difluorophenoxy)piperidin-1-yl)-3-(1-methyl-1H-pyrazol-4-yl)pyrido[3,4-b]pyrazin-7-yl)-3-methyloxazolidin-2-one] | 100 to 1000 nM | 1000 to 30000 nM |  |  |  |
| CC(C)(O)[C@@](C)(O)c1cc2nc(N3CCN(Cc4ccc(F)cc4F)CC3)c(-c3cnn(C(F)F)c3)nc2cn1 (single isomer, unassigned) [Compound 695] |  |  | 100 to 1000 nM | 1000 to 30000 nM |  |
| CC(=O)N1CCc2nc(N3CCC(Oc4ccc(Cl)cc4F)CC3)c(-c3cnn(C)c3)nc2C1 [Compound 456, 1-{2-[4-(4-chloro-2-fluorophenoxy)piperidin-1-yl]-3-(1-methyl-1H-pyrazol-4-yl)-5H,6H,7H,8H-pyrido[3,4-b]pyrazin-6-yl}ethan-1-one] | 100 to 1000 nM | 1000 to 30000 nM |  |  |  |
| CC(=O)N1CCc2nc(N3CCN(C(=O)c4ccc(Cl)cc4)CC3)c(-c3cnn(C)c3)nc2C1 [Compound 538, 1-{2-[4-(p-chlorobenzoyl)-1-piperazinyl]-3-(1-methyl-4-pyrazolyl)-5,6,7,8-tetrahydro-1,4,6-triaza-6-naphthyl}-1-ethanone] |  |  |  |  | IC50 (GPR6; [3]): 100 to 1000 nM; IC50 (GPR3; [4]): 1000 to 30000 nM |
| CC(C)(O)[C@@](C)(O)c1cc2nc(N3CCN(Cc4ccc(F)cc4F)CC3)c(-c3cnn(CF)c3)nc2cn1 (single isomer, unassigned) [Compound 650] |  |  | 100 to 1000 nM | 1000 to 30000 nM |  |
| Fc1ccc(OC2CC3(C2)CN(c2nc4ccncc4nc2-c2cn[nH]c2)C3)c(F)c1 [Compound 26, 2-(6-(2,4-difluorophenoxy)-2-azaspiro[3.3]heptan-2-yl)-3-(1H-pyrazol-4-yl)pyrido[3,4-b]pyrazine] |  |  |  |  | IC50 (GPR6; [5]): 1000 to 30000 nM; IC50 (GPR3; [5]): 100 to 1000 nM |
| CCc1cncc(-c2nc3c(nc2N2CCC(Oc4ccc(F)cc4F)CC2)CCN(C(C)=O)C3)n1 [Compound 493, 1-{2-[4-(2,4-difluorophenoxy)piperidin-1-yl]-3-(6-ethylpyrazin-2-yl)-5H,6H,7H,8H-pyrido[3,4-b]pyrazin-6-yl}ethan-1-one] |  |  |  |  | IC50 (GPR6; [3]): 1000 to 30000 nM; IC50 (GPR3; [4]): 1000 to 30000 nM |
| CC(=O)N1CCc2nc(N3CCC(COc4ccc(F)cc4)C3)c(-c3cnn(C)c3)nc2C1 (stereo not drawn) [Compound 325, 1-(2-{3-[(4-fluorophenoxy)methyl]pyrrolidin-1-yl}-3-(1-methyl-1H-pyrazol-4-yl)-5H,6H,7H,8H-pyrido[3,4-b]pyrazin-6-yl)ethan-1-one] |  |  | 1000 to 30000 nM | 1000 to 30000 nM |  |
| Cn1cc(-c2nc3cnc([C@](C)(O)C(C)(C)O)cc3nc2N2CCC(Oc3ccc(F)cc3F)CC2)cn1 (single isomer, unassigned) [Compound 673] |  |  | 100 to 1000 nM | 1000 to 30000 nM |  |
| CC(=O)N1CCc2nc(N3CCN(Cc4ccccn4)CC3)c(-c3cnn(C)c3)nc2C1 [Compound 511, 1-[3-(1-methyl-4-pyrazolyl)-2-{4-[(2-pyridyl)methyl]-1-piperazinyl}-5,6,7,8-tetrahydro-1,4,6-triaza-6-naphthyl]-1-ethanone] |  |  |  |  | IC50 (GPR6; [3]): ≥ 30000 nM; IC50 (GPR3; [4]): ≥ 30000 nM |
| CC(=O)N1CCc2nc(N3CCC(C(=O)c4ccc(F)cc4F)CC3)c(-c3ccc(F)c(N)n3)nc2C1 [Compound 638, 1-{3-(6-amino-5-fluoro-2-pyridyl)-2-[4-(2,4-difluorobenzoyl)-1-piperidyl]-5,6,7,8-tetrahydro-1,4,6-triaza-6-naphthyl}-1-ethanone] |  |  | < 100 nM | 1000 to 30000 nM |  |
| CC(=O)N1CCc2nc(N3CCN(Cc4ccc(=O)n(C)c4)CC3)c(-c3cnn(C)c3)nc2C1 [Compound 535, 5-({4-[6-acetyl-3-(1-methyl-4-pyrazolyl)-5,6,7,8-tetrahydro-1,4,6-triaza-2-naphthyl]-1-piperazinyl}methyl)-1-methyl-2(1H)-pyridinone] |  |  |  |  | IC50 (GPR6; [3]): ≥ 30000 nM; IC50 (GPR3; [4]): ≥ 30000 nM |
| CNc1cncc(-c2nc3c(nc2N2CCC(Oc4ccc(F)cc4F)CC2)CCN(C(C)=O)C3)n1 [Compound 329, 1-{2-[4-(2,4-difluorophenoxy)piperidin-1-yl]-3-[6-(methylamino)pyrazin-2-yl]-5H,6H,7H,8H-pyrido[3,4-b]pyrazin-6-yl}ethan-1-one] |  |  | < 100 nM | 100 to 1000 nM |  |
| Cn1cc(-c2nc3cnc([C@H](O)C(C)(C)O)cc3nc2N2CCC(Oc3ccc(F)cc3F)CC2)cn1 (single isomer, unassigned) [Compound 378, (Rel-S)-1-(2-(4-(2,4-difluorophenoxy)piperidin-1-yl)-3-(1-methyl-1H-pyrazol-4-yl)pyrido[3,4-b]pyrazin-7-yl)-2-methylpropane-1,2-diol] | 100 to 1000 nM | 1000 to 30000 nM |  |  |  |
| CC(C)(O)[C@@H](O)c1cc2nc(N3CCC(=Cc4ccc(F)cc4F)CC3)c(-c3cnn(CF)c3)nc2cn1 (single isomer, unassigned) [Compound 785] |  |  | < 100 nM | 1000 to 30000 nM |  |
| CC(C)(O)[C@@H](O)c1cc2nc(-c3cnn(C4CC4)c3)c(N3CCN(Cc4ccccc4F)CC3)nc2cn1 (single isomer, unassigned) [Compound 746] |  |  | 100 to 1000 nM | 1000 to 30000 nM |  |
| CC1CN(Cc2ccc(F)cc2F)CCN1c1nc2ccncc2nc1-c1cn[nH]c1 (single isomer, unassigned) [Compound 45, 4-[(2,4-difluorophenyl)methyl]-2-methyl-1-[3-(1H-pyrazol-4-yl)pyrido[3,4-b]pyrazin-2-yl]piperazine] |  |  |  |  | IC50 (GPR6; [5]): 1000 to 30000 nM; IC50 (GPR3; [5]): 1000 to 30000 nM |
| CC(C)(O)C(=O)c1cc2nc(N3CCN(Cc4ccccc4F)CC3)c(-c3cnn(CF)c3)nc2cn1 [Compound 608, 1-{3-[1-(fluoromethyl)-4-pyrazolyl]-2-{4-[(o-fluorophenyl)methyl]-1-piperazinyl}-1,4,6-triaza-7-naphthyl}-2-hydroxy-2-methyl-1-propanone] |  |  |  |  | IC50 (GPR6; [3]): 100 to 1000 nM; IC50 (GPR3; [4]): 1000 to 30000 nM |
| CC(=O)N1CCc2nc(N3CCN(Cc4cnn(C)c4)CC3)c(-c3cnn(C)c3)nc2C1 [Compound 526, 1-[3-(1-methyl-4-pyrazolyl)-2-{4-[(1-methyl-4-pyrazolyl)methyl]-1-piperazinyl}-5,6,7,8-tetrahydro-1,4,6-triaza-6-naphthyl]-1-ethanone] |  |  |  |  | IC50 (GPR6; [3]): ≥ 30000 nM; IC50 (GPR3; [4]): 100 to 1000 nM |
| CCn1cc(-c2nc3cnc(C(=O)C(C)(C)O)cc3nc2N2CCN(Cc3ccc(F)cc3F)CC2)cn1 [Compound 624, 1-(2-{4-[(2,4-difluorophenyl)methyl]-1-piperazinyl}-3-(1-ethyl-4-pyrazolyl)-1,4,6-triaza-7-naphthyl)-2-hydroxy-2-methyl-1-propanone] |  |  | 100 to 1000 nM | 1000 to 30000 nM |  |
| CC(=O)N1CCc2nc(N3CCC(Oc4ccc(F)cc4F)CC3)c(-c3ncn[nH]3)nc2C1 [Compound 1, 1-{2-[4-(2,4-difluorophenoxy)piperidin-1-yl]-3-(1H-1,2,4-triazol-5-yl)-5H,6H,7H,8H-pyrido[3,4-b]pyrazin-6-yl}ethan-1-one] |  |  |  |  | IC50 (GPR6; [5]): 1000 to 30000 nM; IC50 (GPR3; [5]): 100 to 1000 nM |

Now from value to compound, other results behind:

| IC50 (GPR6; [1]) | IC50 (GPR3; [2]) | IC50 (GPR6; procedure of Example 24) | IC50 (GPR3; procedure of Example 24) | Structure (SMILES) | other results |
| --- | --- | --- | --- | --- | --- |
| 100 to 1000 nM | 100 to 1000 nM |  |  | Cn1cc(-c2nc3c(C#N)nccc3nc2N2CCC(Oc3ccc(F)cc3F)CC2)cn1 [Compound 409, 2-[4-(2,4-difluorophenoxy)piperidin-1-yl]-3-(1-methyl-1H-pyrazol-4-yl)pyrido[3,4-b]pyrazine-5-carbonitrile] |  |
| 1000 to 30000 nM | ≥ 30000 nM |  |  | CC(=O)N1CCc2nc(N3CCC(Oc4ccc(F)cc4F)CC3)c(-c3cccn(C)c3=O)nc2C1 [Compound 113, 3-{6-acetyl-2-[4-(2,4-difluorophenoxy)piperidin-1-yl]-5H,6H,7H,8H-pyrido[3,4-b]pyrazin-3-yl}-1-methyl-1,2-dihydropyridin-2-one] |  |
| 1000 to 30000 nM | 1000 to 30000 nM |  |  | CC(=O)N1CCc2nc(N3CCC(Oc4ccc(F)cc4F)CC3)c(-c3cccc(N4CCCC4)n3)nc2C1 [Compound 101, 1-{2-[4-(2,4-difluorophenoxy)piperidin-1-yl]-3-[6-(pyrrolidin-1-yl)pyridin-2-yl]-5H,6H,7H,8H-pyrido[3,4-b]pyrazin-6-yl}ethan-1-one] |  |
| 1000 to 30000 nM | 1000 to 30000 nM |  |  | CC(=O)N1CCc2nc(N3CCN(Cc4ccc(C(F)(F)F)cc4)CC3)c(-c3cnn(C)c3)nc2C1 [Compound 384, 1-[3-(1-methyl-1H-pyrazol-4-yl)-2-(4-{[4-(trifluoromethyl)phenyl]methyl}piperazin-1-yl)-5H,6H,7H,8H-pyrido[3,4-b]pyrazin-6-yl]ethan-1-one] |  |
| 1000 to 30000 nM | 1000 to 30000 nM |  |  | CC(=O)N1CCc2nc(N3CCC(Oc4ccc(F)cc4)CC3)c(-c3cnn(C)c3)nc2C1 [Compound 421, 1-{2-[4-(4-fluorophenoxy)piperidin-1-yl]-3-(1-methyl-1H-pyrazol-4-yl)-5H,6H,7H,8H-pyrido[3,4-b]pyrazin-6-yl}ethan-1-one] |  |
|  |  | 100 to 1000 nM | 1000 to 30000 nM | CC(C)(O)C(C)(O)c1cc2nc(-c3cnn(C4CC4)c3)c(N3CCC(Oc4ccc(F)cc4F)CC3)nc2cn1 (single isomer, unassigned) [Compound 722] |  |
|  |  | 100 to 1000 nM | 1000 to 30000 nM | CC(C)(O)[C@@](C)(O)c1cc2nc(-c3cnn(CF)c3)c(N3CCC(Oc4ccc(F)cc4F)CC3)nc2cn1 (single isomer, unassigned) [Compound 783] |  |
| 1000 to 30000 nM | 1000 to 30000 nM |  |  | COc1cc(-c2nc3c(nc2N2CCC(Oc4ccc(F)cc4F)CC2)CCN(C(C)=O)C3)cnn1 [Compound 235, 1-{2-[4-(2,4-difluorophenoxy)piperidin-1-yl]-3-(6-methoxypyridazin-4-yl)-5H,6H,7H,8H-pyrido[3,4-b]pyrazin-6-yl}ethan-1-one] |  |
|  |  | 100 to 1000 nM | 100 to 1000 nM | CC(C)(O)[C@@H](O)c1cc2nc(N3CCC(Cc4ccc(F)cc4F)CC3)c(-c3cnn(CF)c3)nc2cn1 (single isomer, unassigned) [Compound 727] |  |
